Measurements reported in publication PMC4449000, “Acyclovir Has Low but Detectable Influence on HLA-B*57:01 Specificity without Inducing Hypersensitivity” (PLoS ONE, 2015).
Several values for one entry are separate records, joined by “and”; a condition that tells them apart may be missing. Equal entries are not always repeated. Structures can show the parent of a compound that is named as a salt. Where two headings read alike, the source gives them in different places. Ends that are not written are not given here.

Experiments:
[1] = system: HLA-B*57:01 single allele transfected 721.221 cell line; experiment: Peptide elution and LC-MS identification from drug-treated cells; assay type: cell-based, human
Description: For elution studies, 4–5 x 10^9 cells from the HLA-B*57:01 single allele transfected 721.221 cell line were used. Treated cells were incubated with acyclovir at a concentration of 500 μg/mL for 14 hr at 37°. Cells were harvested and stored at -80°C. Upon thawing, cells were lysed using cell lysis buffer in the presence of protease inhibitors. The lysate was centrifuged at 100,000 x g for 1 hr and the supernatant was collected and passed through a 0.8/0.2 μm filter (VWR International, TX). The filtrate was collected and passed through a sepharose CL-4B (Sigma-Aldrich, MO) column to capture any remaining materials in the lysate that may clog the antibody columns. The filtrate was then passaged through a column packed with protein A sepharose (PAS) beads (sigma) coated with MK-D6 (MTCC HB-3, VA) antibody which served to as an irrelevant antibody (specific for the mouse class II molecule, I-A^d) used to derive a negative control peptide extract. Next, the filtrate was passed through a second PAS column coated with W6/32 antibody (MTCC HB-95) which captures HLA class I molecules. The columns were washed sequentially with: 1) 2 column volumes of lysis buffer, 2) 20 column volumes of 20 mM Tris-HCL (pH 8.0, 150 mM NaCl), 3) 20 column volumes of 20 mM Tri-HCl (pH 8.0, 1.0 M NaCl), and 4) 20 column volumes of 20 mM Tris-HCl (pH 8.0), and then eluted with 4 column volumes of 0.2 M glacial acetic acid. The eluted peptides were then collected and spun at 3,500g at 4°C until 98% of the solution had passed through Millipore ultrafiltration units with a 3,500 Da cut-off (EMD Millipore, MA) to exclude β-2 microglobulin. The filtrate was then collected and concentrated in vacuo for LC-MS analysis.
Peptides were analyzed by nanoflow high-performance liquid chromatography (HPLC)/microelectrospray ionization, coupled directly to a Thermo Fisher Scientific FT-ICR mass spectrometer, equipped with a home-built, front-end electron transfer dissociation (FETD) source. An aliquot of peptide sample was taken to dryness in a vacuum concentrator. Peptides were amidated in a solution that contained 1M histamine-HCl (20 μL) in 1M pyridine-HCl buffer and 0.1M EDC in pyridine-HCl buffer. The solution was sonicated for 3 hours before being dried in a vacuum concentrator and then reconstituted in 0.1% acetic acid.
Data were acquired as previously described. In brief, a pre-column, loaded with 5×10^7 to 2×10^8 cell equivalents of HLA-B*57:01 eluted peptides was connected with polytetrafluoroethylene tubing (0.06-in. o.d. and 0.012-in. i.d.; Zeus Industrial Products) to the end of an analytical HPLC column (360 μm o.d.×50 μm i.d.) containing 6–7 cm of C18 reverse-phase packing material (5-μm particles; YMC). […]

[2] = target: HLA-B*57:01 (Homo sapiens, UniProt P01889, D201E/D98Y/E176V/E187L/E204Q/E69M/E70A/G107R/I90N/K202T/L105A/L119I/N104I/N87E/Q89R/Q94S/R106L/R155S/R180L/R86G/S101N/S121V/S35A/S48A/T118I/V36M/Y140S/Y91M); experiment: Direct binding of radiolabeled […] to HLA-B*57:01 without competitor peptide; settings: increasing doses of drug, four experimental runs in triplicates (Fig 6A)
Description: (§1) Quantitative assays to measure the binding affinity of peptides to purified HLA-B*57:01 molecules based on the inhibition of binding of a radiolabeled standard peptide were performed as previously described. Briefly, 1–10 nM of radiolabeled peptide was co-incubated at room temperature with 1 nM to 1 μM purified HLA-B*57:01 in the presence of 1–3 μM human β2-microglobulin (Scripps Laboratories; San Diego, CA) and a mixture of protease inhibitors. After a 2-day incubation, binding of the radiolabeled peptide to the MHC class I molecule was determined by capturing MHC/peptide complexes on Greiner Lumitrac 600 microplates (Greiner Bio-One; Monroe, North Carilina) coated with the W6/32 antibody, and measuring bound counts per minute (cpm) using the TopCount microscintillation […] counter (PerkinElmer; Waltham, Massachusetts). For competition assays, the concentration of peptide yielding IC50 of the binding of the radiolabeled peptide was calculated. Peptides were typically tested at six different concentrations covering a 100,000-fold dose range.
(§2) For direct binding studies in the absence of a competitor peptide, a purified peptide with sequence […] was ordered from Synthetic Biomolecules (San Diego, CA) and its affinity for either HLA-B*57:01 or HLA-B*58:01 was tested in the presence or absence of abacavir, or acyclovir, in a dose dependent manner.

[3] = target: HLA-B*58:01 (Homo sapiens, UniProt P01889, A329T/C349S/D201E/D98Y/E176V/E187L/E204Q/E69T/G107R/I218V/I90N/K202T/L105A/L119I/N104I/N87E/Q89R/Q94S/R106L/R155S/R180L/R86G/S101N/S121R/S35A/S48A/T118I/V127L/V306I/V36M/Y140S/Y91M); experiment: Direct binding of radiolabeled […] to HLA-B*58:01 (control); settings: control allele (Fig 6B)
Description: as §1, §2

[4] = target: T1, purified HLA-B*57:01 (Homo sapiens, UniProt P01889, D201E/D98Y/E176V/E187L/E204Q/E69M/E70A/G107R/I90N/K202T/L105A/L119I/N104I/N87E/Q89R/Q94S/R106L/R155S/R180L/R86G/S101N/S121V/S35A/S48A/T118I/V36M/Y140S/Y91M); experiment: HLA binding assay: inhibition of binding of a radiolabeled standard peptide to purified HLA-B*57:01 (competition); settings: for number of the 7 peptides ending in I with increased affinity for HLA-B*57:01: 7 individual peptides with I at P9, two independent runs in triplicates (Fig 5); for IC50: Mean ± SEM, S5 Fig, unit inferred
[5] = system: HLA-B*57:01 positive PBMC; experiment: Culture and detection of drug responsive T cells (intracellular IFN-γ, flow cytometry); assay type: cell-based, human; settings: 10 μg/mL drug, 14 day culture, restimulation with drug treated C1R.B57; two of two donors
Description: Drug responsive short-term T cell lines were produced from cryopreserved PBMC, as previously described. […] From day 3 and every 3 days, 50% of media was replaced and 20 U/ml of recombinant human interleukin (IL)-2 (Peprotech) was added to cultures. […] Samples were surface labeled for CD4 and CD8 expression on ice and then fixed and permeabilized for the detection of intra-cellular IFN-γ, as previously described. Abacavir responsive cells were then detected using flow cytometry (Gallios; Beckman Coulter). Lymphocytes were gated on the basis of forward and side scatter properties. The lymphocyte gate was then gated for CD8, but not CD4, positivity using a Boolean logic gate. The frequency of CD8 and IFN-γ double positive cells was determined using Kaluza software (Beckman Coulter).

[6] = target: T1, purified HLA-B*57:01; settings: previously observed; cited from earlier work
[7] = system: HLA-B*57:01 single allele transfected 721.221 cell line; settings: abacavir; not measured in this paper, no reference printed at b57; cited from earlier work

IC50 ([4]; 0.5 mg/mL acyclovir, p < 0.01 vs vehicle, read-out: IC-50 for HLA-B*57:01, 0.5 mg/mL acyclovir) [nM]	IC50 ([4]; vehicle, read-out: IC-50 for HLA-B*57:01, vehicle) [nM]	Compound	unique peptide sequences identified from the drug treated sample only ([1]; acyclovir 500 μg/mL, 14 hr, 37°, excludes 91 sequences present in both samples)	number of eluted peptides with a C-terminal isoleucine in the presence of the drug ([1]; acyclovir 500 μg/mL, 14 hr, includes three peptides present in both samples, vs four in untreated, p = 0.073)	Number of peptides that do not have isoleucine at C terminus (Treated) ([1]; acyclovir treated cells, peptides found in both treated and untreated samples not included)	Number of peptides that have isoleucine at C terminus (Treated) ([1]; acyclovir treated cells, peptides found in both treated and untreated samples not included, one-sided Fisher's exact test p = 0.0726)	increase in the level of bound peptide KAAKYRVSV on HLA-B*57:01 ([2]; radiolabeled KAAKYRVSV) [fold]	effect of drug on binding of KAAKYRVSV to HLA-B*58:01 ([3]; radiolabeled KAAKYRVSV)	number of the 7 peptides ending in I with increased affinity for HLA-B*57:01 [4]	change in HLA-B*57:01 affinity of peptides ending in C ([4]; individual peptides with C at P9 (S4 Fig))	effect on HLA-B*57:01 binding affinity for three 9-mer peptides with a C-terminal valine ([4]; screen of seven drugs, one experimental run in quadruplicates (S3 Fig))	drug specific CD8+/IFN-γ+ T-cell response in PBMC primed and restimulated with the same drug [5]	increase in affinity for I and V peptides in the presence of abacavir (PSCPL) [6] [fold]	increase in the level of bound peptide […] on HLA-B*57:01 ([2]; radiolabeled […])	effect of drug on binding of […] to HLA-B*58:01 ([3]; radiolabeled […])	largest change / increase of peptide binding affinity (IC50) for HLA-B*57:01 in the presence of the drug ([4]; individual peptides, summary statement)	peptides with a C-terminal valine presented exclusively in the presence of the drug [7]
–	–	Nc1nc2c(ncn2COCCO)c(=O)[nH]1 [acyclovir]	169	twelve	160	9	2	unaffected	two	None of the peptides ending in C showed any change	small but consistent increase	could not detect any acyclovir specific response	–	–	–	–	–
–	–	Nc1nc(NC2CC2)c2ncn([C@H]3C=C[C@@H](CO)C3)c2n1 [abacavir, Abacavir sulfate]	–	–	–	–	–	–	all seven	–	–	expanded population of CD8 positive / IFN-γ positive T-cells	10	up to 5 fold	unaffected	≤ 1000 fold and 1,000 fold	15
7.1 ± 1	13.7 ± 1.3	RARQLNYTI	–	–	–	–	–	–	–	–	–	–	–	–	–	–	–
